Reference: article PMC12880737 (Journal of medicinal chemistry, 2025)

How the values were obtained:
[1] = target: T1, GAS41 YEATS domain (Homo sapiens, UniProt O95619); experiment: Fluorescence polarization competition assay with H3K23crK27cr-FAM probe; type: binding
Target sequence in this assay (O95619 1-148): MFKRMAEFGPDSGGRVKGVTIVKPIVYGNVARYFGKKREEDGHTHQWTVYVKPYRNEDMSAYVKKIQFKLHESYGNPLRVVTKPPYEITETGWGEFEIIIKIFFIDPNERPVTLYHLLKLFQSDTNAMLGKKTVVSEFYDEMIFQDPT

[2] = target: T1, GAS41 YEATS domain; experiment: 1H-15N HSQC NMR binding experiments; conditions: 50 μM 15N GAS41 YEATS, 100 μM compound
Target sequence in this assay (O95619 18-190): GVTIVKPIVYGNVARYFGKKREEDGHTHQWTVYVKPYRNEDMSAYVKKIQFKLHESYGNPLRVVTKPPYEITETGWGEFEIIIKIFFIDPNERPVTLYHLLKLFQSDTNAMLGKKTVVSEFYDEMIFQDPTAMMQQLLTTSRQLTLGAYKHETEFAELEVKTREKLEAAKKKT

[3] = target: NanoLUC-GAS41 and Halo-H3.3 (Homo sapiens, UniProt O95619); experiment: GAS41 NanoBRET assay in HEK293T cells; type: cell-based
[4] = tested on: CDKN1A; experiment: CDKN1A gene expression by RT-qPCR in H1299 cells; type: cell-based; conditions: 7 days
[5] = target: his6-GAS41 YEATS (13-158) (Homo sapiens, UniProt O95619); experiment: AlphaLISA competition assay with 21-biot probe
[6] = target: NanoLuc-tagged BRD4-BD1 and Halo-tagged histone H3.3 (Homo sapiens, UniProt O60885); experiment: BRD4-BD1 NanoBRET assay; type: cell-based; conditions: Figure S3
[7] = tested on: H1299 cells; experiment: Wound healing assay; type: cell-based; conditions: H1299, 24 h

Chain of his6-GAS41 YEATS (13-158) (O95619 13-158): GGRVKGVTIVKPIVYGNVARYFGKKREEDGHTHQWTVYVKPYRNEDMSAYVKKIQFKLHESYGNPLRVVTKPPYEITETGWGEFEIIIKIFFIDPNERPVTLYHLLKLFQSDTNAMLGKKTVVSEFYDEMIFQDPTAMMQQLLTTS
Chain of NanoLUC-GAS41 and Halo-H3.3 (O95619 whole entry): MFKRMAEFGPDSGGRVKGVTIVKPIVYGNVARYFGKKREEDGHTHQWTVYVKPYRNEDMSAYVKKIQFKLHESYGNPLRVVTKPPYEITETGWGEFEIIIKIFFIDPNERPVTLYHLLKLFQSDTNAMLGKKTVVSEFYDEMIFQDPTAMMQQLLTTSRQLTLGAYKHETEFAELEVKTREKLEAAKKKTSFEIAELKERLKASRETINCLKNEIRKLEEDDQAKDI

Structure (SMILES) | IC50 [1] [nM] | IC50 [5] [nM] | further results
Cc1sc2c(c1C)C(c1ccc(Cl)cc1)=N[C@@H](CC(=O)OC(C)(C)C)c1nnc(C)n1-2 [JQ1, reference compound] | – | – | activity in GAS41 BRET assay ([3]; Figure S3): no activity
CC(=O)NCc1ccc(-c2cnc(C3CN(C(=O)c4ccc(NC(=O)[C@@H]5CCCN5)s4)C3)s2)c(Cl)c1 [Compound 35, (S)-N-(5-(3-(5-(4-(acetamidomethyl)-2-chlorophenyl)thiazol-2-yl)azetidine-1-carbonyl)thiophen-2-yl)pyrrolidine-2-carboxamide] | 3400 ± 130 | 1400 ± 330 | –
O=C(NCc1ccc(-c2cnc(C3CN(C(=O)c4ccc(NC(=O)[C@@H]5CCCN5)s4)C3)s2)cc1)C1CCCC1 [Compound 30, (S)-N-(5-(3-(5-(4-(cyclopentanecarboxamidomethyl)phenyl)thiazol-2-yl)azetidine-1-carbonyl)thiophen-2-yl)pyrrolidine-2-carboxamide] | 1300 ± 400 | 600 ± 80 | –
CCC(=O)NCc1ccc(-c2cnc(C3CN(C(=O)c4ccc(NC(=O)[C@@H]5CC(C)(C)CN5)s4)C3)s2)c2ccccc12 [Compound 39, (S)-4,4-dimethyl-N-(5-(3-(5-(4-(propionamidomethyl)naphthalen-1-yl)thiazol-2-yl)azetidine-1-carbonyl)thiophen-2-yl)pyrrolidine-2-carboxamide] | – | – | activity in BRD4-BD1 NanoBRET assay [6]: no activity; scratch healing [7]: slowed scratch healing

Further lines, with some results ahead:

IC50 [1] [nM] | IC50 [5] [nM] | Structure (SMILES) | further results
118000 ± 7700 | > 50000 | CCC(=O)NCc1ccc(-c2cnc(C3CN(C(=O)c4cnc(NC(=O)[C@@H]5CC(C)(C)CN5)s4)C3)s2)c2ccccc12 [Compound 40, (S)-4,4-dimethyl-N-(5-(3-(5-(4-(propionamidomethyl)naphthalen-1-yl)thiazol-2-yl)azetidine-1-carbonyl)thiazol-2-yl)pyrrolidine-2-carboxamide] | amide perturbations in 1H-15N HSQC NMR [2]: no perturbations; IC50 [3]: > 25000 nM; levels of CDKN1A [4]: but not DLG-41nc strongly enhanced levels of CDKN1A
1100 ± 10 | 200 ± 80 | O=C(NCc1ccc(-c2cnc(C3CN(C(=O)c4ccc(NC(=O)[C@@H]5CCCN5)s4)C3)s2)cc1)c1ccccc1 [Compound 31, (S)-N-(5-(3-(5-(4-(benzamidomethyl)phenyl)thiazol-2-yl)azetidine-1-carbonyl)thiophen-2-yl)pyrrolidine-2-carboxamide] | –
